According to patent US7417156B2, “Orally active, antimalarial, anticancer, artemisinin-derived trioxane dimers” (Johns Hopkins University, priority 2002, dated 2008):

Key:
CCRF-CEM = assay: NCI 60 cell line panel screen (SRB); assay type: cell-based, human; details: for Log10LC50 / Log10TGI50: CCRF-CEM (Leukemia); for Log10LC50: LC50: PG=−50; for Log10TGI50: TGI: PG=0; for Log10GI50: Leukemia, CCRF-CEM
HL-60(TB) = assay: NCI 60 cell line panel screen (SRB); assay type: cell-based, human; details: for Log10LC50: LC50: PG=−50; for Log10GI50: Leukemia, HL-60(TB)
MOLT-4 = details: for Log10LC50 / Log10TGI50: MOLT-4 (Leukemia); for Log10LC50: LC50: PG=−50; for Log10TGI50: TGI: PG=0
Experimental: Growth Inhibition. […] The screening assay is performed on 96-well microtitre plates. Relatively high initial inoculation densities are used, in order to permit measurement of “time-zero” values and to enhance the screen's ability to detect and provide some differentiation between growth inhibition and cytotoxic response parameters. […] The inoculated microtitre plates are pre-incubated for 24 hours at 37° C. prior to drug additions. The five drug dilutions tested routinely range from 10^−4 to 10^−8 molar. Higher or lower concentration ranges may be selected on a non-routine basis if appropriate solubility and/or prior biological information or other screening data so dictate. Duplicate wells are prepared for all concentrations, (concentration is often denoted by placing brackets around a number); “time-zero” and “no drug” controls are also provided for each test. The minimum amount of compound required for a one-time evaluation in the routine screen can be calculated from the knowledge that each test requires a total of approximately 40 ml (0.04 liter) of cell culture medium containing the highest desired drug concentration. […] After a 48 hour incubation (37° C.) with the test compound, the cells are fixed in situ to the bottoms of the microtitre wells by addition of 50 μl of either 50% trichloroacetic acid (for adherent cell lines) or 80% trichloroacetic acid (for settled cell suspension lines), followed by incubation for 60 minutes at 4° C. The cellular protein in each well is assayed using a sulforhodamine B (SRB) stain procedure. Briefly, after discarding the supernatants, the microtitre plates are washed 5 times with deionized water and air-dried. […] Unbound SRB is removed by washing 5 times with 1% acetic acid. […] SRB is a bright pink anionic dye which, in dilute acetic acid, binds electrostatically to the basic amino acids of TCA-fixed cells. Cryopreserved master stocks of all the lines are maintained, and cultures used for screening are replaced from the master stock after no more than twenty passages in the screening laboratory. The cell line panel consists of 60 lines, organized into nine, disease-related subpanels including leukemia, non-small-cell lung cancer, colon, CNS, melanoma, ovarian, renal, prostate and breast cancers.
At this value the increase from time tzero, in the number or mass of cells in the test well is only 50% as much as the corresponding increase in the control well during this period of the experiment, see Table III. A drug effect of this intensity is interpreted as primary growth inhibition.
At this value the number or mass of cells in the well at the end of the experiment equals the number or mass of cells in the well at time tzero, see Table IV. A drug effect of this intensity is regarded as cytostasis.
At this value, the number or mass of cells in the test well at the end of the experiment is half that at time tzero, see Table V. This is interpreted as cytotoxicity.
Dose response curves, shown in the above mentioned Figures, are obtained by exposing various cancer cell lines to compounds having a known concentration ([log10M]), as discussed in detail above, and then plotting the percentage growth of each cell line for each concentration. […] Percentage growth is determined by dividing the number or mass of cells in the test well by the number or mass of cells in a control well. […] As discussed previously, the five drug dilutions routinely tested range from 10^−4 to […].

A549/ATCC = assay: NCI 60 cell line panel screen (SRB); assay type: cell-based, human; details: for Log10LC50 / Log10TGI50: A549/ATCC (Non-Small Cell Lung Cancer); for Log10LC50: LC50: PG=−50; for Log10TGI50: TGI: PG=0; for Log10GI50: Non-Small Cell Lung Cancer, A549/ATCC
NCI-H522 = assay: NCI 60 cell line panel screen (SRB); assay type: cell-based, human; details: for Log10TGI50: NCI-H522 (Non-Small Cell Lung Cancer), TGI: PG=0; for Log10LC50: NCI-H-522 (Non-Small Cell Lung Cancer), LC50: PG=−50; for Log10GI50: Non-Small Cell Lung Cancer, NCI-H522
COLO 205 = assay: NCI 60 cell line panel screen (SRB); assay type: cell-based, human; details: for Log10LC50 / Log10TGI50: COLO 205 (Colon Cancer); for Log10LC50: LC50: PG=−50; for Log10TGI50: TGI: PG=0; for Log10GI50: Colon Cancer, COLO 205
KM12 = assay: NCI 60 cell line panel screen (SRB); assay type: cell-based, human; details: for Log10GI50: Colon Cancer, KM12; for Log10LC50 / Log10TGI50: KM12 (Colon Cancer); for Log10LC50: LC50: PG=−50; for Log10TGI50: TGI: PG=0
SF-268 = assay: NCI 60 cell line panel screen (SRB); assay type: cell-based, human; details: for Log10GI50: CNS Cancer, SF-268; for Log10LC50 / Log10TGI50: SF-268 (CNS Cancer); for Log10LC50: LC50: PG=−50; for Log10TGI50: TGI: PG=0
U251 = assay: NCI 60 cell line panel screen (SRB); assay type: cell-based, human; details: for Log10GI50: CNS Cancer, U251; for Log10LC50 / Log10TGI50: U251 (CNS Cancer); for Log10LC50: LC50: PG=−50; for Log10TGI50: TGI: PG=0
MALME-3M = assay: NCI 60 cell line panel screen (SRB); assay type: cell-based, human; details: for Log10LC50 / Log10TGI50: MALME-3M (Melanoma); for Log10LC50: LC50: PG=−50; for Log10TGI50: TGI: PG=0
M14 = assay: NCI 60 cell line panel screen (SRB); assay type: cell-based, human; details: for Log10LC50: M14 (Melanoma), LC50: PG=−50; for Log10TGI50: M-14 (Melanoma), TGI: PG=0; for Log10GI50: Melanoma, M14
SK-MEL-2 = assay: NCI 60 cell line panel screen (SRB); assay type: cell-based, human; details: for Log10LC50: SK-MEL2 (Melanoma), LC50: PG=−50; for Log10TGI50: SK-MEL-2 (Melanoma), TGI: PG=0
OVCAR-5 = assay: NCI 60 cell line panel screen (SRB); assay type: cell-based, human; details: for Log10LC50 / Log10TGI50: OVCAR-5 (Ovarian Cancer); for Log10LC50: LC50: PG=−50; for Log10TGI50: TGI: PG=0; for Log10GI50: Ovarian Cancer, OVCAR-5
TK-10 = assay: NCI 60 cell line panel screen (SRB); assay type: cell-based, human; details: for Log10GI50: Renal Cancer, TK-10; for Log10LC50 / Log10TGI50: TK-10 (Renal Cancer); for Log10LC50: LC50: PG=−50; for Log10TGI50: TGI: PG=0
UO-31 = assay: NCI 60 cell line panel screen (SRB); assay type: cell-based, human; details: for Log10GI50: Renal Cancer, UO-31; for Log10LC50 / Log10TGI50: UO-31 (Renal Cancer); for Log10LC50: LC50: PG=−50; for Log10TGI50: TGI: PG=0
MCF7 = assay: NCI 60 cell line panel screen (SRB); assay type: cell-based, human; details: for Log10GI50: Breast Cancer, MCF7; for Log10LC50 / Log10TGI50: MCF7 (Breast Cancer); for Log10LC50: LC50: PG=−50; for Log10TGI50: TGI: PG=0
HS 578T = assay: NCI 60 cell line panel screen (SRB); assay type: cell-based, human; details: for Log10GI50: Breast Cancer, HS 578T; for Log10LC50 / Log10TGI50: HS 578T (Breast Cancer); for Log10LC50: LC50: PG=−50; for Log10TGI50: TGI: PG=0
MDA-MB-435 = assay: NCI 60 cell line panel screen (SRB); assay type: cell-based, human; details: for Log10LC50 / Log10TGI50: MDA-MB-435 (Breast Cancer); for Log10LC50: LC50: PG=−50; for Log10TGI50: TGI: PG=0

## CC1CCC2C(C)C(CC(O)(CO)CC3OC4OC5(C)CCC6C(C)CCC(C3C)C46OO5)OC3OC4(C)CCC1C32OO4 (centres unmarked) [Compound 5, bis-trioxane vicinal diol]
CCRF-CEM
  Log10LC50: >−4.00 log10M
  Log10TGI50: >−4.00 log10M
  Log10GI50: −4.71
HL-60(TB); HL-60(TB) (Leukemia)
  Log10LC50: >−4.00 log10M
HL-60(TB)
  Log10GI50: <−8.00
MOLT-4
  concentration for cytotoxicity (percentage growth −50): greater than 10^−4 M
  Log10LC50: >−4.00 log10M
  Log10TGI50: >−4.00 log10M
MOLT-4; Leukemia, MOLT-4
  Log10GI50: <−8.00
A549/ATCC
  Log10LC50: −4.11 log10M
  Log10TGI50: −4.82 log10M
  Log10GI50: −7.59
NCI-H522
  Log10TGI50: −4.59 log10M
  Log10LC50: −4.17 log10M
  Log10GI50: −7.33
COLO 205
  Log10LC50: −4.15 log10M
  Log10TGI50: −4.87 log10M
  Log10GI50: <−8.00
KM12
  Log10GI50: <−8.00
  Log10LC50: >−4.00 log10M
  Log10TGI50: −4.47 log10M
SF-268
  Log10GI50: −4.94
  Log10LC50: −4.12 log10M
  Log10TGI50: −4.53 log10M
U251
  Log10GI50: −7.68
  Log10LC50: −4.08 log10M
  Log10TGI50: −4.61 log10M
MALME-3M
  Log10LC50: −4.11 log10M
  Log10TGI50: −4.50 log10M
M14
  Log10LC50: >−4.00 log10M
  Log10TGI50: >−4.00 log10M
  Log10GI50: −4.59
SK-MEL-2; Melanoma, SK-MEL-2
  Log10GI50: −4.94
SK-MEL-2
  Log10LC50: −4.12 log10M
  Log10TGI50: −4.53 log10M
OVCAR-5
  Log10LC50: >−4.00 log10M
  Log10TGI50: −4.33 log10M
  Log10GI50: −4.78
TK-10
  Log10GI50: −4.91
  Log10LC50: −4.06 log10M
  Log10TGI50: −4.49 log10M
UO-31
  Log10GI50: −7.38
  Log10LC50: −4.26 log10M
  Log10TGI50: −4.68 log10M
MCF7
  Log10GI50: <−8.00
  Log10LC50: −4.22 log10M
  Log10TGI50: −4.88 log10M
HS 578T
  Log10GI50: −4.72
  Log10LC50: >−4.00 log10M
  Log10TGI50: −4.08 log10M
MDA-MB-435
  Log10LC50: −4.09 log10M
  Log10TGI50: −4.54 log10M

## CC1CCC2C(C)C(CC(O)(CC3OC4OC5(C)CCC6C(C)CCC(C3C)C46OO5)CS(=O)(=O)c3ccc(C(=O)O)cc3)OC3OC4(C)CCC1C32OO4 (stereo not drawn) [Compound 10c, bis-trioxane β-hydroxysulfone benzoic acid]
CCRF-CEM
  Log10LC50: >−4.30 log10M
  Log10TGI50: −4.84 log10M
  Log10GI50: <−8.30
HL-60(TB); HL-60(TB) (Leukemia)
  Log10LC50: >−4.30 log10M
HL-60(TB); HL-60(TB) (Leukemia), TGI: PG=0
  Log10TGI50: <−8.30 log10M
HL-60(TB)
  Log10GI50: <−8.30
MOLT-4
  Log10LC50: >−4.30 log10M
  Log10TGI50: >−4.30 log10M
A549/ATCC
  Log10LC50: >−4.30 log10M
  Log10TGI50: >−4.30 log10M
  Log10GI50: −5.28
NCI-H522
  Log10TGI50: −4.34 log10M
  Log10LC50: >−4.30 log10M
  Log10GI50: <−8.30
COLO 205
  Log10LC50: −5.55 log10M
  Log10TGI50: <−8.30 log10M
  Log10GI50: <−8.30
KM12
  Log10GI50: <−8.30
  Log10LC50: −5.23 log10M
  Log10TGI50: <−8.30 log10M
SF-268
  Log10GI50: <−8.30
  Log10LC50: −4.59 log10M
  Log10TGI50: −5.14 log10M
U251
  Log10GI50: <−8.30
  Log10LC50: −4.72 log10M
  Log10TGI50: −5.22 log10M
MALME-3M
  Log10LC50: −4.80 log10M
  Log10TGI50: <−8.30 log10M
MALME-3M; Melanoma, MALME-3M
  Log10GI50: <−8.30
M14
  Log10LC50: −4.42 log10M
  Log10TGI50: −4.91 log10M
  Log10GI50: <−8.30
SK-MEL-2
  Log10LC50: >−4.30 log10M
  Log10TGI50: >−4.30 log10M
OVCAR-5
  Log10LC50: −4.88 log10M
  Log10TGI50: <−8.30 log10M
  Log10GI50: <−8.30
TK-10
  Log10GI50: <−8.30
  Log10LC50: −4.62 log10M
  Log10TGI50: −5.40 log10M
UO-31
  Log10GI50: −5.91
  Log10LC50: >−4.30 log10M
  Log10TGI50: >−4.30 log10M
MCF7
  Log10GI50: <−8.30
  Log10LC50: >−4.30 log10M
  Log10TGI50: −5.13 log10M
HS 578T
  Log10GI50: −4.82
  Log10LC50: >−4.30 log10M
  Log10TGI50: −4.53 log10M
MDA-MB-435; Breast Cancer, MDA-MB-435
  Log10GI50: <−8.30
MDA-MB-435
  Log10LC50: −4.60 log10M
  Log10TGI50: −5.17 log10M
